Experiments:
[1] = test system: maternal decidua (DECI) chamber; assay: LPS induced inflammation propagation in FMI-OOC, cytokines in cell supernatant; type: cell-based
Procedure: (§1) FIG. 12A illustrates after lipopolysaccharide (LPS) treatment in the AEC chamber for 24, 48, or 72 hours, cell supernatants were collected from each cell chamber within the FMI-OOC to document LPS induced inflammation propagation. LPS induced an increase in AEC IL-8 production at 24 and 48 hours, which reached the maternal decidua chamber by 72 hours, causing an increase in IL-8. Documenting LPS induced fetal inflammation can reach the maternal compartment in 72 hours within an FMI-OOC device.
(§2) FIG. 12B illustrates after LPS treatment in the maternal decidua (DECI) chamber for 24, 48, or 72 hours, cell supernatants were collected from each cell chamber within the FMI-OOC to document LPS induced inflammation propagation. LPS induced an increase in DECI IL-6 production at 24, which reached the fetal AEC chamber by 24 hours, causing a rise in IL-8 that increased over 72 hours. Documenting LPS induced maternal inflammation can reach the fetal compartment in 72 hours within an FMI-OOC device.
(§3) The device described here expands the previously described two-chamber coculture model into a four-chamber coculture model to include both fetal and maternal cell components. The fetal membrane-decidua interface model (FMI-OOC) composed of four coculture compartments interconnected through arrays of microfluidic channels (FIG. 10 and FIG. 11). Here, three cell types from the fetal side (AEC, AMC, chorion mesenchymal cells (CMC)/chorion trophoblast (CT)) and one from the maternal side (decidua cells) were used, establishing the first OOC model that contains both fetal and maternal cells. Cell loading concentration into each chamber mimicked those of in utero cell ratios of the fetal membrane tissue. The microfluidic channel array prevents cells from flowing into the neighboring compartments during initial cell loading, allow localized drug treatment of each cell layer, and allow taking supernatant from each layer independently for local biochemical analysis. At the same time, these channels allow biochemicals to diffuse between the layers, and also permit cell migration and transition.

AEC chamber = assay: as above; type: cell-based
Procedure: as §1, §2, §3

[2] = test system: amnion epithelial cells (AECs); assay: Cell migration through type IV collagen-filled microchannels of AM-OOC (bright field microscopy); type: cell-based, human; conditions: coculture, OS (CSE) cotreatment in both chambers
Excerpt: Before using the AM-OOC, devices were washed 3 times with PBS and coated with Matrigel as previously described. The next day, devices were washed 3 times with complete DMEM-F12 medium before cell seeding. Primary cells were then trypsinized and stained with live cell dyes for green fluorescent protein (GFP) (for AEC; CellLight Histone 2B-GFP) or red fluorescent protein (RFP) (for AMC; CellLight Histone 2B-RFP) following the protocol provided by the company (10594 and 10595; Thermo Fisher Scientific, Waltham, MA, USA). Then, 120,000 AECs were loaded into the outer chamber, and 40,000 AMCs were loaded into the inner chamber of the AM-OOC. The AM-OOCs were incubated at 37° C. with 5% CO2 for 24 h before localized treatment (see next section).
To test the effect of OS on cellular transition in the amnion membrane, each AM-OOC was treated with one of the following for 48 h: 1) normal cell culture conditions (control DMEM-F12 medium); 2) OS conditions [induced by treating cells with cigarette smoke extract (CSE)] diluted 1:25 in AEC medium or diluted 1:75 in AMC medium; and 3) to verify the effect of OS, cells were cotreated with an OS inducer (CSE) and an antioxidant or stress signaler p38 MAPK inhibitor [N-acetyl-L-cysteine (NAC, 15 mM, A7250; MilliporeSigma] (23, 29) and SB203580 ([…], S8307; MilliporeSigma) (23, 29), a p38 MAPK inhibitor and a known inducer of EMT. […]

Row | Compound | IL-8 in maternal decidua chamber ([1]; LPS treatment in the AEC chamber, by 72 hours) | DECI IL-6 production ([1]; LPS treatment in the maternal decidua (DECI) chamber, at 24) | AEC IL-8 production (AEC chamber; LPS treatment in the AEC chamber, at 24 and 48 hours) | IL-8 in fetal AEC chamber (AEC chamber; LPS treatment in the maternal decidua (DECI) chamber, from 24 hours, increased over 72 hours) | effect on OS cotreatment-induced AEC transition, blocked migration and increased inflammation [2]
1 | lipopolysaccharide [LPS] | increase | increase | increase | rise | 
2 | CC(=O)N[C@@H](CS)C(=O)O [NAC, N-acetyl-L-cysteine] |  |  |  |  | prevented
